Experimental data as given in US8071778B2, “Substituted heterocyclic ethers and their use in CNS disorders” (Bristol-Myers Squibb Company, priority 2006, dated 2011).
Like-named read-outs stand apart in the source and are kept apart here.

Tests used:
[1] = target: T1, hSERT (Homo sapiens, UniProt P31645); assay: SERT radioligand binding assay
T1 construct: expressed in transfected cells; host or cells: HEK-293 cells (crude membranes)
Description: (§1) NK-1 Binding assay. Crude membrane suspensions were prepared for the NK1 and SERT radioligand binding assays from U373 cells or recombinant HEK-293 cells expressing hSERT, respectively. […] The medium is removed from the flasks and the cells rinsed with HBSS without Ca and without Mg. The cells are then incubated for 5-10 minutes in 10 mM Tris-Cl, pH 7.5, 5 mM EDTA before the cells are lifted with a combination of pipetting and scraping, as needed. To prepare membranes, the cell suspension is collected into centrifuge bottles and homogenized for 30 seconds with a Polytron homogenizer. The suspension is centrifuged for 30 min 32,000×g, 4° C., then the supernatant is decanted and the pellet resuspended and homogenized in 50 mM Tris-Cl, pH 7.5, 1 mM EDTA for 10 seconds. The suspension is then centrifuged again for 30 min 32,000×g, 4° C. The supernatant is decanted and the pellet resuspended in 50 mM Tris-Cl, pH 7.5, 1 mM EDTA and briefly homogenized. A Bradford assay (Bio-rad) is performed and the membrane preparation diluted to 2 mg/ml with 50 mM Tris-Cl, pH 7.5, 1 mM EDTA. Aliquots are prepared, and then frozen and stored at −80° C.
(§2) SERT radioligand binding assay. Compounds are dissolved in 100% DMSO at a concentration 100× the desired highest assay concentration, serially diluted 1:3 in 100% DMSO, and 0.4 ul/well of each solution is dispensed to a Nunc polypropylene, round bottom, 384 well plate. […] The contents of the assay plate are then transferred to a Millipore MultiscreenHTS GF/B filter plate which has been pretreated with 0.5% PEI for at least one hour. The plate is vacuum filtered and washed with 7 washes of 100 ul/well of 50 mM Tris-Cl, pH 7.5, 120 mM NaCl, 5 mM KCl chilled to 4° C. The filtration and washing is completed in less than 90 s. The plates are air-dried overnight, 12 ul/well of MicroScint scintillation fluid added, and the plates counted in a Trilux.
(§3) Data analysis. […] Each plate is run in triplicate, and the concentration response curve thus generated is fit using the four-parameter dose response equation, Y=Bottom+(Top-Bottom)/(1+10^((Log IC50−X)*HillSlope)) in order to determine the IC50 value for each compound. The radioligand concentration chosen for each assay corresponds to the Kd concentration determined through saturation binding analysis for each assay.

[2] = target: T2, NK-1 (Homo sapiens, UniProt P25103); assay: NK1 radioligand binding assay; conditions: U373 membrane preparation, [125I]Substance P
T2 construct: endogenous in cells; host or cells: U373 cells (crude membranes)
Description: as §1
as §2, with “NK1” for “SERT”, “0.6” for “0.4”, “20” for “50”, “0.5% (w/v) BSA” for “120 mM NaCl, 5 mM KCl”
as §3

[3] = HEK-hSERT membrane preparation, [125I]RTI-55, read-out: SERT IC50

T1 sequence (P31645 whole entry): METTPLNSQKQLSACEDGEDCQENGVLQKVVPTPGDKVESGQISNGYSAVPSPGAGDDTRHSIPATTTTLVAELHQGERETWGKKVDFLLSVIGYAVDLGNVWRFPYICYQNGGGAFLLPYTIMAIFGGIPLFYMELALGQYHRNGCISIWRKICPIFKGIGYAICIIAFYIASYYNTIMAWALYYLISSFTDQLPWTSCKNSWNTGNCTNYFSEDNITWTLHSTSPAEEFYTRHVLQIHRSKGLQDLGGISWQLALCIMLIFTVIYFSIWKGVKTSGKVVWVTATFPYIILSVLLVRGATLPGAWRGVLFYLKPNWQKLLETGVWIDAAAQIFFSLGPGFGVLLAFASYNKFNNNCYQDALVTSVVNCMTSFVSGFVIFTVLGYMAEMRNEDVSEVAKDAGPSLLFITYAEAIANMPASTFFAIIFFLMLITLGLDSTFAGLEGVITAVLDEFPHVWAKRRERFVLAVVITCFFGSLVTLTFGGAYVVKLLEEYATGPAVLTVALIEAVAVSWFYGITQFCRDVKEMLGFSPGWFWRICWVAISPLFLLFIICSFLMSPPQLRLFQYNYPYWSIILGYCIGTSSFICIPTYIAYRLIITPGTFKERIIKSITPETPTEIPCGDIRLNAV
T2 sequence (P25103 whole entry): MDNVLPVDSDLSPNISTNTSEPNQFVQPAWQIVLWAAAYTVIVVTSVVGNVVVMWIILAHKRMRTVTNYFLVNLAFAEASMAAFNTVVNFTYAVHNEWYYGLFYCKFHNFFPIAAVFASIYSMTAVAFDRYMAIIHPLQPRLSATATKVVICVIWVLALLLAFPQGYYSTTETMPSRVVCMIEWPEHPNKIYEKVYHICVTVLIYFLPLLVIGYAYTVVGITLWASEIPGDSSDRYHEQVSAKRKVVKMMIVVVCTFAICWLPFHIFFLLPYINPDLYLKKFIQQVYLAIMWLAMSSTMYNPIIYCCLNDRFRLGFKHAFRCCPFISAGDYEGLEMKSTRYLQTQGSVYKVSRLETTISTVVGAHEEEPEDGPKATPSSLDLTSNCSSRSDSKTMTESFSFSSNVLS

| Compound | IC50 [1, 3] [nM] | IC50 [2] [nM] | IC50 [1] [nM] |
| --- | --- | --- | --- |
| N#CC1CCN(c2cc(C(F)(F)F)cc(COCC3(c4ccc(F)cc4)CCNCC3)n2)CC1 [Example 17] | 0.01 to 100 | 0.01 to 100 | – |
| CC(OCC1(c2ccc(F)cc2)CCN(C)CC1)c1cc(C(F)(F)F)cc(N2CCC[C@@H]2C)n1 (stereo partly shown) [Example 95] | – | 0.01 to 100 | 0.01 to 100 |
| CC(OCC1(c2ccccc2)CCNCC1)c1cc(C(F)(F)F)cc(-c2ccc(C#N)cc2)n1 (stereo not shown) [Example 8] | 0.01 to 100 | 0.01 to 100 | – |
| Cc1cc(-c2cc(C(F)(F)F)cc(C(C)OCC3(c4ccc(F)cc4)CCN(C)CC3)n2)ccc1C#N (stereo not shown) [Example 97] | – | 0.01 to 100 | 100 to 300 |
| CN1CCC(COCc2ccc(-c3ccc(Cl)cc3)nc2)(c2ccccc2)CC1 [Example 50] | – | > 300 | 0.01 to 100 |
| CN1CCC(COCc2cc(C(F)(F)F)cc(-c3ccc(C#N)cc3)n2)(c2ccccc2F)CC1 [Example 54] | – | 0.01 to 100 | 100 to 300 |
| Fc1ccc(C2(COCc3cc(C(F)(F)F)cc(-c4ccc(F)cc4F)n3)CCNCC2)cc1 [Example 12] | 0.01 to 100 | 0.01 to 100 | – |
| N#Cc1ccc(-c2cc(C(F)(F)F)cc(COCC3(c4ccc(F)cc4)CCNCC3)n2)cc1 [Example 7] | 0.01 to 100 | 0.01 to 100 | – |
| CCN(CC)c1cc(C(F)(F)F)cc(COCC2(c3ccc(F)cc3)CCNCC2)n1 [Example 22] | 0.01 to 100 | 0.01 to 100 | – |
| CN1CCC(COCc2cc(-c3ccc(C#N)cc3)nc(-c3ccc(C#N)cc3)c2)(c2ccccc2)CC1 [Example 67] | – | > 300 | 100 to 300 |
| Cc1cc(-c2cc(C(F)(F)F)cc(COCC3(c4ccc(F)cc4)CCNCC3)n2)ccc1C#N [Example 11] | 0.01 to 100 | 0.01 to 100 | – |
| CC(OCC1(c2ccc(F)cc2)CCN(C)CC1)c1cc(C(F)(F)F)cc(Br)n1 (stereo not shown) [Example 33, 2-bromo-6-(1-((4-(4-fluorophenyl)-1-methylpiperidin-4-yl)methoxy)ethyl)-4-(trifluoromethyl)p] | – | 0.01 to 100 | 0.01 to 100 |
| CN1CCC(COCc2cc(C(F)(F)F)cc(-c3cccn3C(=O)OC(C)(C)C)n2)(c2ccc(F)cc2)CC1 [Example 65] | – | 0.01 to 100 | 100 to 300 |
| CN1CCC(COCc2cc(C(F)(F)F)cc(-c3ccc[nH]3)n2)(c2ccc(F)cc2)CC1 [Example 66] | – | 0.01 to 100 | 0.01 to 100 |
| CC1CCCN1c1cc(C(F)(F)F)cc(COCC2(c3ccc(F)cc3)CCN(C)CC2)n1 (stereo not shown) [Example 90] | – | 0.01 to 100 | 0.01 to 100 |
| Cc1ccc(-c2cc(C(F)(F)F)cc(COCC3(c4ccccc4)CCN(C)CC3)n2)cc1 [Example 40] | – | 0.01 to 100 | 0.01 to 100 |
| COc1cc(C(C)OCC2(c3ccc(F)cc3)CCN(C)CC2)cc(-c2ccc(C#N)cc2)n1 (stereo not shown) [Example 79] | – | 0.01 to 100 | 0.01 to 100 |
| N#Cc1cc(C(F)(F)F)cc(COCC2(c3ccccc3)CCNCC2)n1 [Example 31] | 0.01 to 100 | > 300 | – |
| Cc1ccc(-c2cc(C(F)(F)F)cc(COCC3(c4ccccc4)CCNCC3)n2)cc1 [Example 4] | 0.01 to 100 | 0.01 to 100 | – |
| COc1ccc(-c2cc(C(F)(F)F)cc(COCC3(c4ccccc4)CCNCC3)n2)cc1 [Example 1, 2-(4-methoxyphenyl)-6-(((4-phenylpiperidin-4-yl)methoxy)methyl)-4-(trifluoromethyl)pyridine] | 0.01 to 100 | 0.01 to 100 | – |
| CC(OCC1(c2ccccc2)CCN(C)CC1)c1cc(C(F)(F)F)cc(-c2ccc(C#N)cc2)n1 (stereo not shown) [Example 46] | – | 0.01 to 100 | 0.01 to 100 |
| CN1CCC(COCc2cc(C(F)(F)F)cc(-c3ccncc3)n2)(c2ccccc2)CC1 [Example 39] | – | 0.01 to 100 | 0.01 to 100 |
| CN1CCC(COCc2cc(C(F)(F)F)cc(N3CC[C@H](F)C3)n2)(c2ccc(F)cc2)CC1 [Example 91] | – | 0.01 to 100 | 0.01 to 100 |
| COc1cc(OC)nc(COCC2(c3ccccc3)CCNCC2)n1 [Example 30, 4,6-dimethoxy-2(((4-phenylpiperidin-4-yl)methoxy)methyl)pyrimidine] | 100 to 300 | > 300 | – |

| Compound | IC50 [1, 3] [nM] | IC50 [2] [nM] | IC50 [1] [nM] |
| --- | --- | --- | --- |
| COc1cc(COCC2(c3ccc(F)cc3)CCN(C)CC2)cc(C(F)(F)F)n1 [Example 80] | – | 0.01 to 100 | 0.01 to 100 |
| CC(OCC1(c2ccc(F)cc2)CCN(C)CC1)c1cc(C(F)(F)F)cc(N2CCCC2)n1 (stereo not shown) [Example 86] | – | 0.01 to 100 | 0.01 to 100 |
| Clc1ccc(-c2ccc(COCC3(c4ccccc4)CCNCC3)cn2)cc1 [Example 10] | 0.01 to 100 | > 300 | – |
| CN1CCC(COCc2cc(C(F)(F)F)cc(-c3ccc(C#N)cc3)n2)(c2ccc(F)cc2F)CC1 [Example 64] | – | 0.01 to 100 | 100 to 300 |
| CC(OCC1(c2ccc(F)cc2)CCN(C)CC1)c1cc(C(F)(F)F)cc(-c2ccc(C#N)cc2)n1 (stereo not shown) [Example 96] | – | 0.01 to 100 | 0.01 to 100 |
| CC(OCC1(c2ccccc2)CCNCC1)c1cc(C(F)(F)F)cc(C#N)n1 (stereo not shown) [Example 32] | 0.01 to 100 | 0.01 to 100 | – |
| CC(OCC1(c2ccccc2)CCNCC1)c1cc(C(F)(F)F)cc(N2CCOCC2)n1 (stereo not shown) [Example 23] | 0.01 to 100 | 0.01 to 100 | – |
| CN1CCC(COCc2cc(C(F)(F)F)cc(-c3ccc(C#N)cc3)n2)(c2ccc(F)c(F)c2)CC1 [Example 81] | – | 0.01 to 100 | 0.01 to 100 |
| Fc1ccc(-c2cc(C(F)(F)F)cc(COCC3(c4ccccc4)CCNCC3)n2)cc1 [Example 5] | 0.01 to 100 | 0.01 to 100 | – |
| CN1CCC(COCc2cc(C(F)(F)F)cc(-c3ccc(C#N)cc3)n2)(c2ccc(F)cc2)CC1 [Example 47] | – | 0.01 to 100 | 0.01 to 100 |
| CN1CCC(COCc2cc(C(F)(F)F)cc(N3CCC(N4CCCC4)CC3)n2)(c2ccccc2)CC1 [Example 88] | 0.01 to 100 | > 300 | – |
| FC(F)(F)c1cc(COCC2(c3ccccc3)CCNCC2)nc(-c2ccncc2)c1 [Example 2] | 0.01 to 100 | 0.01 to 100 | – |
| CN1CCC(COCc2cc(C(F)(F)F)cc(-c3ccc(C#N)cc3)n2)(c2cccc(Cl)c2)CC1 [Example 82] | – | 0.01 to 100 | 0.01 to 100 |
| CN1CCC(COCc2cc(C(F)(F)F)cc(-c3ccc(F)cc3)n2)(c2ccccc2)CC1 [Example 42] | – | 0.01 to 100 | 0.01 to 100 |
| CC(OCC1(c2ccccc2)CCNCC1)c1cc(C(F)(F)F)cc(C(F)(F)F)n1 (stereo not shown) [Example 27, 2-(1-((4-phenylpiperidin-4-yl)methoxy)ethyl)-4,6-bis(trifluoromethyl)pyridine] | 0.01 to 100 | 0.01 to 100 | – |
| CC(OCC1(c2ccccc2)CCN(C)CC1)c1cc(C(F)(F)F)cc(-c2ccc(F)cc2)n1 (stereo not shown) [Example 34, 2-(4-fluorophenyl)-6-(1-((1-methyl-4-phenylpiperidin-4-yl)methoxy)ethyl)-4-(trifluoromethyl)pyridine] | 0.01 to 100 | 0.01 to 100 | – |
| COc1ccc(-c2cc(C(F)(F)F)cc(COCC3(c4ccc(F)cc4)CCN(C)CC3)n2)cc1 [Example 74] | – | 0.01 to 100 | 0.01 to 100 |
| CN1CCC(COCc2cc(C(F)(F)F)cc(N3CCCC3)n2)(c2ccccc2F)CC1 [Example 55] | 0.01 to 100 | 0.01 to 100 | – |
| CCN(c1cc(C(F)(F)F)cc(COCC2(c3ccc(F)cc3)CCN(C)CC2)n1)C(C)C [Example 73] | – | 0.01 to 100 | 0.01 to 100 |
| CN1CCC(COCc2cc(N3CCCC3)cc(C(F)(F)F)n2)(c2ccccc2)CC1 [Example 48] | – | 0.01 to 100 | 0.01 to 100 |
| C[C@H]1CCCN1c1cc(C(F)(F)F)cc(COCC2(c3ccc(F)cc3)CCN(C)CC2)n1 [Example 93] | – | 0.01 to 100 | 0.01 to 100 |
| COc1cc(COCC2(c3ccc(F)cc3)CCN(C)CC2)cc(-c2ccc(C#N)cc2)n1 [Example 76] | – | 0.01 to 100 | 0.01 to 100 |
| Fc1ccc(C2(COCc3cc(C(F)(F)F)cc(N4CC=CC4)n3)CCNCC2)cc1 [Example 19] | 0.01 to 100 | 0.01 to 100 | – |
